Measurements from patent publication US11279708B2, “Amidino- and amino-rocaglates as novel translation inhibitors and anticancer agents” (priority 2019, dated 2022).

Experiments:
[1] = target: T1, eIF4A2:poly r(AG)8 RNA (Homo sapiens, UniProt Q14240); assay: fluorescence polarization (FP) assay, eIF4A2 binding to FAM-labelled RNA; settings: 10 μM CR-1-31-B
T1 construct: His6 (N); made in house; host or cells: E. coli BL21 (DE3)
From the text: Rocaglates similarly enhance RNA binding of eIF4A1 and eIF4A2. In order to rapidly evaluate the ability of rocaglates to stimulate binding of eIF4A to RNA, a fluorescence polarization (FP) assay using a FAM (fluorescein amidite)-labelled RNA probe (FIG. 18A) was used. […] Due to the high degree of shared amino acid identity between the two paralogs, their apparent similarity with respect to RNA binding activity and response to CR-1-31-B (23), and the fact that eIF4A1 is essential but eIF4A2 is not, eIF4A1 was used in the majority of our subsequent experiments.
Fluorescence Polarization (FP) Assays. Unless otherwise specified, eIF4A (500 nM) was incubated with 10 nM FAM-labelled RNA for 30 min in FP buffer (14.4 mM HEPES-NaOH (pH 8), 108 mM NaCl, 1 mM MgCl2, 14.4% glycerol, 0.1% DMSO, 2 mM DTT, 1 mM AMPPNP) at room temperature in black low volume 384 well plates (Corning 3820). FP readings were performed on a Pherastar FS microplate reader (BMG Labtech).
FIGS. 17A-17F. Assessment of eIF4A1 and eIF4A2 RNA binding specificity. 17A. Chemical structure of the most commonly used rocaglates in biological studies 17B. Coomassie blue staining of SDS-PAGE showing eIF4A1 and eIF4A2 preparations used herein. […]

[2] = target: T2, eIF4A1:poly r(AG)10 (Homo sapiens, UniProt P60842); assay: FP competition assay, dissociation of eIF4A from (AG)10 RNA; format: binding; settings: in the presence of compound
T2 construct: His6 (N); made in house; host or cells: E. coli BL21 (DE3)
Experimental: All of these identified compounds retained similar RNA sequence binding preference for eIF4A1 with a bias for polypurine-containing substrates over polypyrimidines (FIG. 17). […] Even in the presence of ATP, which stimulates release of eIF4A from RNA, the half-life of the complexes were much longer than the rates of translation initiation (median <1 min)
Rocaglates sequester eIF4F onto RNA. RocA (2) induced clamping of eIF4A to 5′ leader regions have been proposed to inhibit translation by blocking scanning of 43S PICs. We therefore sought to test if this mechanism was sufficient to account for the translation inhibition observed with RocA, CR-1-31-B (23), and the newly identified ADRs. We supplemented translation extracts programmed with m^7G-(AG)10-FF/HCV/Ren mRNA with wild-type (wt) or rocaglate-resistant eIF4A1(F163L) recombinant protein. […] Thus, if stabilization of endogenous eIF4A in translation extracts onto mRNA is sufficient to mediate translation inhibition, then the addition of recombinant eIF4A1^F163L should not be able to rescue this inhibition. […]
FIG. 21. […] FP results of competition assays in which preformed eIF4A1:rocaglate:FAM-poly r(AG)10 complexes were incubated in the presence of poly r(AG)10 (SEQ ID NO: 39) and dissociation measured as a function of time. n=3±SD.

T2 sequence (P60842 whole entry, species assumed): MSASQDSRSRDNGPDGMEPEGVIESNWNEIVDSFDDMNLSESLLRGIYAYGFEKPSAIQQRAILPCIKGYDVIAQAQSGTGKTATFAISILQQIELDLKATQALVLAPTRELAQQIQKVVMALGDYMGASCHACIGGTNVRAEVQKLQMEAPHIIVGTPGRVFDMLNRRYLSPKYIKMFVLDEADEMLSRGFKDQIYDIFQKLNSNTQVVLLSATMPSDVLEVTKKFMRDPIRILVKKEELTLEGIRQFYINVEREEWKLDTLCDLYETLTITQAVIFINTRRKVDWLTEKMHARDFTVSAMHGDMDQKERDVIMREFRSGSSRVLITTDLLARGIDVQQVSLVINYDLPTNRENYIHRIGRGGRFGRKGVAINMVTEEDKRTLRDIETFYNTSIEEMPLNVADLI
T1 sequence (Q14240 whole entry, species assumed): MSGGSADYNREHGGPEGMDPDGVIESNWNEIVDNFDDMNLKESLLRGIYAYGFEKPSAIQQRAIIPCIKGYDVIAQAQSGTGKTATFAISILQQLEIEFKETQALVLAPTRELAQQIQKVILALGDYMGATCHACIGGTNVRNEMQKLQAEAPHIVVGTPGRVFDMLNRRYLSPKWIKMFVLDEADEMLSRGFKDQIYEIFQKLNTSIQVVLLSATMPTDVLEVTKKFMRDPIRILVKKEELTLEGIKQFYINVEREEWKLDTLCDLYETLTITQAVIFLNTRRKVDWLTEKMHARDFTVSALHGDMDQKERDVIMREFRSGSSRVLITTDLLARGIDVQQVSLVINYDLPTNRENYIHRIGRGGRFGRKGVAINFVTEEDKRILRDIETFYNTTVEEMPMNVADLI

| Structure (SMILES) | stimulation of eIF4A2:RNA binding (in words) [1] | dissociation of eIF4A from (AG)10, t1/2 [2] [min] |
| --- | --- | --- |
| CONC(=O)[C@H]1[C@@H](O)[C@@]2(O)c3c(OC)cc(OC)cc3O[C@@]2(c2ccc(OC)cc2)[C@@H]1c1ccccc1 [CR-1-31-B] | equally stimulates binding of both eIF4A1 and eIF4A2 |  |
| COc1ccc([C@@]23Oc4cc(OC)cc(OC)c4[C@]2(O)[C@H](O)[C@H](C(=O)N(C)C)[C@H]3c2ccccc2)cc1 [RocA, rocaglamide A] |  | 27 |
